From patent publication US7964723B2, “And practical process for exclusively producing (S)-9-fluoro-3-methyl-10-(4-methyl-1-piperazinyl)-7-oxo-2,3-dihydro-7H-pyrido-[1,2,3,de][1,4]benzoxazine-6-carboxylic acid hemihydrate” (Apeloa-Kangyu, priority 2008, dated 2011)
Where two headings read alike, the source gives them in different places.

Experiments:
[1] = test system: gram-positive and gram-negative bacteria; details: cited from earlier work
[2] = cited from earlier work
[3] = loss of crystal water on drying; type: physicochemical; details: 50° C. under vacuum of around 60 mm/Hg for a couple of hours; theoretical water 2.43%
Description: Levofloxacin hemihydrate contains a theoretical amount of water of 2.43%.

[4] = hemihydrate compared with monohydrate; cited from earlier work

| SMILES | potency in inhibiting the multiplication of bacteria relative to its (+)-enantiomer ([1]; gram-positive and gram-negative bacteria, versus (+)-enantiomer) | activity relative to its racemate, ofloxacine ([1]; versus racemate) | drying temperature at which crystal water is lost (anhydrous form results) ([2]; under atmospheric pressure) | drying temperature at which crystal water is lost (anhydrous form results) ([2]; under reduced pressure) | water lost by drying [3] | phase stability as a drug substance [4] |
| --- | --- | --- | --- | --- | --- | --- |
| C[C@H]1COc2c(N3CCN(C)CC3)c(F)cc3c(=O)c(C(=O)O)cn1c23 [Levofloxacin, (S)-9-fluoro-3-methyl-10-(4-methyl-1-piperazinyl)-7-oxo-2,3-dihydro-7H-pyrido-[1,2,3-de][1,4]benzoxazine-6-carboxylic acid] | 8-128 times | approximately 2 times | – | – | – | – |
| C[C@H]1COc2c(N3CCN(C)CC3)c(F)cc3c(=O)c(C(=O)O)cn1c23 [Levofloxacin hemihydrate, (−)-(S)-9-fluoro-3-methyl-10-(4-methyl-1-piperazinyl)-7-oxo-2,3-dihydro-7H-pyrido-[1,2,3-de] [1,4] benzoxazine-6-carboxylic acid hemihydrate] | – | – | around 70 °C | around 60 °C | 0.20-0.30% | superior to the monohydrate |
